These results are taken from patent publication US20030216569A1, “Method of making HIV protease inhibitors” (priority 1993, published 2003).

Assay [1] relates to HIV-1 isolates IIIB and/or RF in CEM cells. Nature of the assay: SRI primary anti-HIV screen, MTT assay of inhibition of HIV-induced cell killing in CEM cells. The class given is cell-based. The settings on record: for SRI CEM IC50: CEM cells; for IC50: Human immunodeficiency virus 1, IIIB, CCRF-CEM, read-out: SRI CEM IC50 ng/mL, CEM cells. As for the experimental part:
(§1) A. Principle of MTT Assay:
This assay involves the conversion of the tetrazolium dye MTT to a colored formazan product by mitochondrial enzymes in metabolically active cells. This assay system is used at SRI to screen over 30,000 compounds per year. Briefly, the assay involves the infection of CEM or MT2 cells in round bottom 96-well plates. The compound of interest is added just prior to infection. Following 6 days of incubation at 37° C. the plates are stained with MTT. The results of the assay are quantitated spectrophotometrically on a Molecular Devices Vmax plate reader. The data are analyzed by linear regression utilizing an in-house software program to calculate antiviral activity (IC25, IC50, IC95) and toxicity (TC25, TC50, TC95) as well as other values.
(§2) Primary antiviral assays are routinely performed in CEM or MT-2 cells.
(§3) B. Standard Screening Assays in CEM and MT-2 Cells
(§4) 1. Compound dilution and delivery to the plates
(§5) Drugs are solubilized in the appropriate vehicle such as distilled water or DMSO if necessary. Latex gloves, lab coats and masks are used during all phases of the handling process to prevent exposure to potentially harmful agents. The drug is prepared at the appropriate concentration and stored at −20° C. until used by the screening laboratory. The first dilution of each compound is made in a dilution tube with medium to yield a concentration two-fold that of the highest test concentration. Sterile titer tubes are then used to make serial one half-log dilutions of each compound. Following drug dilution, the diluted compound is added to the appropriate well of a 96-well microtiter plate. Up to 12 dilutions can be assayed conveniently in triplicate on a single plate with all appropriate controls including cell control, virus control, toxicity control, drug color control, medium control and plastic (background) control. When testing includes only six dilutions, two drugs can be assayed on a single microtiter plate. The drugs are added to the plate in a final volume of 100 microliters.
(§6) During the time the drug dilutions are prepared, cells are washed and counted. Viability is monitored by trypan blue dye exclusion and assays are not performed if the viability falls below 90%. Cells are maintained in an exponential growth phase and are split 1:2 on the day prior to assay to assure exponential growth rate.
(§7) For the primary screen, the cell lines utilized are CEM and MT-2. Unless otherwise indicated, the medium used is RPMI 1640 with 10% heat-inactivated fetal calf serum (FBS), glutamine and antibiotics.
(§8) Cells are propagated at 37° C. in an atmosphere of 5% CO2 in air. The virus employed for this work is HIV-1 isolates IIIB and/or RF, which are prepared by an acute infection process.
(§9) Briefly, virus-infected cells are pelleted on a daily basis beginning at three days post-infection until the virus has killed all of the cells in the culture. Reverse transcriptase activity and p24 ELISA are used to identify pools with the greatest amout of virus.
(§10) These 24-hour harvests are pooled, filtered and frozen at −90° C. Prior to use in the assay, the infectious pool of virus is titered on all available cell lines in order to determine the amount of virus required in the antiviral assay.
In general, pools produced by the acute infection method require the addition of one microliter of infectious virus per well resulting in the screening of drugs at a multiplicity of infection of 0.01. In this manner, enough virus is prepared and frozen to complete over one thousand microtiter plates, allowing the testing of up to two thousand compounds from a single stock of infectious virus.
Virus infection of the CEM and MT-2 cells for the antiviral assay is carried out in a bulk infection process.

Assay [2] concerns HIV-1 isolates IIIB and/or RF in MT-2 cells. Nature of the assay: SRI primary anti-HIV screen, MTT assay of inhibition of HIV-induced cell killing in MT2 cells. Conditions: for IC50: Human immunodeficiency virus 1, IIIB, MT2, read-out: SRI MT2 IC50 ng/ml, MT2 cells; for SRI MT2 IC50: MT2 cells. The class given is cell-based.
Description: I. Primary Drug Screening of Anti-HIV Compounds at Southern Research Institute (SRI) (Results recorded in Table 1 are designated “SRI CEM (ng/ml)” or “SRI MT2 (ng/ml)”)
as §1
SRI has an established program for the primary antiviral analysis of compounds in microtiter assays which measures the ability of a selected compound to inhibit HIV-induced cell killing. This assay involves the conversion of the tetrazolium dye MTT to a colored formazan product by mitochondrial enzymes in metabolically active cells. This assay system is used at SRI to screen over 30,000 compounds per year. Briefly, the assay involves the infection of CEM or MT2 cells in round bottom 96-well plates. The compound of interest is added just prior to infection. Following 6 days of incubation at 37° C. the plates are stained with MTT. The results of the assay are quantitated spectrophotometrically on a Molecular Devices Vmax plate reader. The data are analyzed by linear regression utilizing an in-house software program to calculate antiviral activity (IC25, IC50, IC95) and toxicity (TC25, TC50, TC95) as well as other values.
as §2, §3, §4
as §5, with “Up to 12 dilutions can be assayed conveniently in triplicate on a single plate with all appropriate controls including cell control, virus control, toxicity control, drug color control, medium control and plastic (background) control.” left out
as §6, §7, §8, §9, §10
In general, pools produced by the acute infection method require the addition of one microliter of infectious virus per well resulting in the screening of drugs at a multiplicity of infection of 0.01. In this manner, enough virus is prepared and frozen to complete over one thousand microtiter plates, allowing the testing of up to two thousand compounds from a single stock of infectious virus. The use of a single stock of virus for a long period of testing has very favorable effects on the repeatability of the assay systems. […]
On the technique in general: Formazan colour is commonly taken as a measure of viable cells.

Molecules are shown by their SMILES. Values after ≈ are worked out from the molar mass of the structure shown.

With `CC(C)(C)NC(=O)C1CC2CCCCC2CN1CC(O)C(Cc1ccccc1)NC(=O)c1ccccc1C(F)(F)F` (stereo not drawn) [Example 15, [3S-(3R*,4aR*,8aR*,2′S*,3′R*)]-2-[2′-Hydroxy-3′-phenylmethyl-4′-aza-5′-oxo-5′-(2″-trifluoromethylphenyl)pentyl] decahydroisoquinoline-3-N-t-butylcarboxamide], in assay [1], the “SRI CEM IC50” value is 1.59 µg/mL and the IC50 came to 1430 ng/mL (≈ 2.49 µM). Also, in assay [2], the IC50 is 1680 ng/mL (≈ 2.93 µM) and the “SRI MT2 IC50” value stood at 1.47 µg/mL.

Turning to `CC(C)(C)NC(=O)C1CC2CCCCC2CN1CC(O)C(Cc1ccccc1)NC(=O)c1cccc(O)c1Cl` (stereo not drawn) [Example 11, [3S-(3R*,4aR*,8aR*,2′S*,3′R*)]-2-[2′-Hydroxy-3′-phenylmethyl-4′-aza-5′-oxo-5′-(2″-chloro-3″-hydroxyphenyl)pentyl] decahydroisoquinoline-3-N-t-butylcarboxamide], in assay [1], the “SRI CEM IC50” value was found to be 0.338 µg/mL and the IC50 worked out at 420 ng/mL (≈ 0.755 µM). Further, in assay [2], the IC50 turned out to be 649 ng/mL (≈ 1.17 µM) and the “SRI MT2 IC50” value stood at 0.387 µg/mL.

In the case of `Cc1c(O)cccc1C(=O)NC(CSc1ccc2ccccc2c1)C(O)CN1CC2CCCCC2CC1C(=O)NC(C)(C)C` (stereo not drawn) [Example 24, [3S-(3R*,4aR*,8aR*,2′S*,3′R*)]-2-[2′-Hydroxy-3′-(naphth-2-ylthiomethyl)-4′-aza-5′-oxo-5′-(2″-methyl-3″-hydroxyphenyl)pentyl] decahydroisoquinoline-3-N-t-butylcarboxamide], the IC50 came out at 67 ng/mL (≈ 0.108 µM) in assay [1] and 41.4 ng/mL (≈ 0.067 µM) in assay [2]. The “SRI MT2 IC50” value in assay [2] was found to be 0.0464 µg/mL.

As to `Cc1c(O)cccc1C(=O)N[C@@H](Cc1ccccc1)[C@H](O)CN1CCN(Cc2cccnc2)C[C@H]1C(=O)NC(C)(C)C` [Example 26, [2S-(2R*,2′S*,3′R*)]-1-[2′-Hydroxy-3′-phenylmethyl-4′-aza-5′-oxo-5′-(2″-methyl-3″-hydroxyphenyl)pentyl]-4-(pyrid-3′″-ylmethyl) piperazine-2-N-t-butylcarboxamide], the IC50 is 49.7 ng/mL (≈ 0.0866 µM) in assay [1] and 49 ng/mL (≈ 0.0854 µM) in assay [2].
